In experiment [1] the target is T1, Nitric oxide synthase, inducible (Homo sapiens, UniProt P35228). The experiment can be described thus: The concentration required for inhibition of Human inducible nitric oxide synthase (iNOS) isoform.
For another experiment, the target named is Nitric oxide synthase 1 (Homo sapiens, UniProt P29475). The experiment can be described thus: The concentration required for inhibition of Human Neuronal nitric oxide synthase (nNOS).
The target of experiment [2] is T1, Nitric oxide synthase, inducible. The experiment can be described thus: The concentration required for inhibition of Human inducible nitric oxide synthase (iNOS) isoform, expressed as IC50.

Nitric oxide synthase 1, sequence (P29475 whole entry, canonical isoform): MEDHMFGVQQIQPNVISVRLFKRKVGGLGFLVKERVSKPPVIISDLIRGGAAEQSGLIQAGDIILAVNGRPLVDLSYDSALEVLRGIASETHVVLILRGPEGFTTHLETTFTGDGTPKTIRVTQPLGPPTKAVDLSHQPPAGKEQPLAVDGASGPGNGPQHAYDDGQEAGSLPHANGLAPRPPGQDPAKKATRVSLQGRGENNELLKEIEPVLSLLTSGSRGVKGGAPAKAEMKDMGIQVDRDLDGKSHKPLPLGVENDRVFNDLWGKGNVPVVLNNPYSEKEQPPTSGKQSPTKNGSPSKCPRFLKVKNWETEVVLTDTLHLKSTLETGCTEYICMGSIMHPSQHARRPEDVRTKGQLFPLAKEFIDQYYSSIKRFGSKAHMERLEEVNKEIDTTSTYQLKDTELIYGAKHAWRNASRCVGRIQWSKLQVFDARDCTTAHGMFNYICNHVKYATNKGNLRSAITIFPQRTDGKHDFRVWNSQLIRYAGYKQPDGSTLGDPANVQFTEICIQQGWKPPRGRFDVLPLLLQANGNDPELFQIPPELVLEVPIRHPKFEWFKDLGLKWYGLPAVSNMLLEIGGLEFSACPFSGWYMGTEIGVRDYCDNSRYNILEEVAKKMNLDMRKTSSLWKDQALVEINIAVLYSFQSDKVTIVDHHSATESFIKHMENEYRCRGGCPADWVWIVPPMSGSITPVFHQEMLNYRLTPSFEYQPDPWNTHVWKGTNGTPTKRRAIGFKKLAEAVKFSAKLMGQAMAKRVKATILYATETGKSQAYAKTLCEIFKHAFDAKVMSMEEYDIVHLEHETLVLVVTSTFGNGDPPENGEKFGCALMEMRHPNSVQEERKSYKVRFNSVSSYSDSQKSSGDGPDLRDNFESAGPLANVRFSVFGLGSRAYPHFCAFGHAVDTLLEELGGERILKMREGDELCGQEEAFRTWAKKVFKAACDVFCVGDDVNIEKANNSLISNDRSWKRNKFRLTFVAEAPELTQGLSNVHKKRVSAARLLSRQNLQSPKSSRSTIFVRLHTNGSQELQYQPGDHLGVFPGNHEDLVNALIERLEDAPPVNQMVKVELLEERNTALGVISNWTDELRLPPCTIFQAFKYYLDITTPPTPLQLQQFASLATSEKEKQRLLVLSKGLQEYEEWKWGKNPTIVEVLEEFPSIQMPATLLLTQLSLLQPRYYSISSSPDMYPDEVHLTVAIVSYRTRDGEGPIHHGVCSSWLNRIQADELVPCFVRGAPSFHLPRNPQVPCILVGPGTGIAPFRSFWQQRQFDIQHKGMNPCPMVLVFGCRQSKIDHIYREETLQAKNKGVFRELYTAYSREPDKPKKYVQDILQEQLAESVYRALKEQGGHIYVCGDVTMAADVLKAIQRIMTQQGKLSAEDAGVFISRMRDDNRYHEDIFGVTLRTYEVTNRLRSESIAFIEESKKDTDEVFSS
T1 sequence (P35228 whole entry, canonical isoform): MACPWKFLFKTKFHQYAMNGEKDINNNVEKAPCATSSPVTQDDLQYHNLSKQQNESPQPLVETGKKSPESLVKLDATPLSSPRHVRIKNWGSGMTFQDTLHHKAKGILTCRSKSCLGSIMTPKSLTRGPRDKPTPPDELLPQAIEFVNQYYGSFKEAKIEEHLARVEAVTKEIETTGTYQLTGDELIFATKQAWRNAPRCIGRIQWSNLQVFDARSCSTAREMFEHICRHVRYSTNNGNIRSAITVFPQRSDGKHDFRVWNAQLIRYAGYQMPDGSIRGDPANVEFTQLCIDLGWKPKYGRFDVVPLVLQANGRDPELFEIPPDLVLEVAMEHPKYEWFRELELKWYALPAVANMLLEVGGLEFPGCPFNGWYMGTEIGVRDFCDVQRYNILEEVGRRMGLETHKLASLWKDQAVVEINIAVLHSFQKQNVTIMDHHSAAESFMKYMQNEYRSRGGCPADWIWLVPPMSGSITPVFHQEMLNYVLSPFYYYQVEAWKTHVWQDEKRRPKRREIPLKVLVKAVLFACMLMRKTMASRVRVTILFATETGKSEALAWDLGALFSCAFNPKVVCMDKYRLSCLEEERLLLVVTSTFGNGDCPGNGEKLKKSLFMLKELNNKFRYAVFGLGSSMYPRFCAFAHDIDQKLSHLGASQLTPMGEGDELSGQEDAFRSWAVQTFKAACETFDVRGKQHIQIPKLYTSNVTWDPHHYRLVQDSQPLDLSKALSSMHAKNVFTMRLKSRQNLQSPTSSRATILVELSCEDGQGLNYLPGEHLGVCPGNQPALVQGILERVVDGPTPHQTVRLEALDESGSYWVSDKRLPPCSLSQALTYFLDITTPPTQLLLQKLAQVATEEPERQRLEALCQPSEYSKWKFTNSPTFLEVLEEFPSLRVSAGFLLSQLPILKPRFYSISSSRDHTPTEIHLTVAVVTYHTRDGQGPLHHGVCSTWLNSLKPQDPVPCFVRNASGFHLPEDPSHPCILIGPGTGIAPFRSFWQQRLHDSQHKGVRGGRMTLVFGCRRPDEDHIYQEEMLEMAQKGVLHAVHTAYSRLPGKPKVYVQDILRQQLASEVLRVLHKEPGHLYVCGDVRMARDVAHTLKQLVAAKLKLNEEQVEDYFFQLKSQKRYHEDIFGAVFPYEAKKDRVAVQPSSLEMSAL

By IC50 is commonly meant the concentration that inhibits the measured activity by half. A lower IC50 goes with greater potency. In the case of `CC(=N)NCCCC[C@H](N)C(=O)O`, the results for the IC50 (in experiment [1]; on Nitric oxide synthase 1) were 5.9 µM and 35 µM, respectively.
Regarding `CC(=N)NCCCC[C@H](N)C(=O)Nc1nnn[nH]1`, the IC50 (in experiment [2]; at Nitric oxide synthase 1) was greater than 1850 µM throughout.

These data come from ChEMBL document CHEMBL1135576, “Synthesis and biological characterization of L-N(6)-(1-iminoethyl)lysine 5-tetrazole-amide, a prodrug of a selective iNOS inhibitor” (J Med Chem, 2002).
